Laboratory results taken from PMC3069126 (Journal of natural products, 2011).
Blank lines part the entries; values can stand above or below the molecule they belong to.

Assays:
[1] = system: Hepa1c1c7 cells; assay: Cytotoxicity assay; format: cell-based; conditions: Hepa-1c1c7, read-out: inhibition of Hepa1c1c7
[2] = system: MCF-7 cells; assay: Cytotoxicity assay; format: cell-based; conditions: Homo sapiens, MCF7, read-out: inhibition of MCF-7
[3] = system: ovine QR2; assay: Ultrafiltration LC-MS binding assay for QR2
[4] = target: T1, quinone reductase 2 (QR2) (Homo sapiens, UniProt P16083); assay: QR2 assay
T1 sequence (P16083 1-231): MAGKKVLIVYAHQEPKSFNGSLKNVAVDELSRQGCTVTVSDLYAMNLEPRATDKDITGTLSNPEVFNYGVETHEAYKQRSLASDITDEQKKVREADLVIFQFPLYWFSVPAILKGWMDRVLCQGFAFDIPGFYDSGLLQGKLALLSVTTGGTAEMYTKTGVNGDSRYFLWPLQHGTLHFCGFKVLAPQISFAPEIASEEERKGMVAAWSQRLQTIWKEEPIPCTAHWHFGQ

SMILES: CC[C@]1(O)C[C@@H]2CN(CCc3c([nH]c4ccccc34)[C@@](C(=O)OC)(c3cc4c(cc3OC)N(C)[C@H]3[C@@](O)(C(=O)OC)[C@H](OC(C)=O)[C@]5(CC)C=CCN6CC[C@]43[C@@H]65)C2)C1 [vinblastine]
inhibition at 49.4 µM [1]: 90%
inhibition at 49.4 µM [2]: 74%

SMILES: CC(=O)O[C@H]1C(=O)[C@@]2(C)[C@H]([C@H](OC(=O)c3ccccc3)[C@]3(O)C[C@H](OC(=O)[C@H](O)[C@@H](NC(=O)c4ccccc4)c4ccccc4)C(C)=C1C3(C)C)[C@]1(OC(C)=O)CO[C@@H]1C[C@@H]2O [paclitaxel]
inhibition at 23.4 µM [1]: 57%
inhibition at 23.4 µM [2]: 64%

More lines, now with the values ahead:

response in LC-MS ultrafiltration binding assay with QR2 [3]: positive response
SMILES: COc1c(-c2ccc(O)cc2)oc2cc(O[C@@H]3O[C@H](CO[C@@H]4O[C@@H](CO)[C@H](O)[C@H]4O)[C@@H](O)[C@H](O)[C@H]3O)cc(O)c2c1=O [Compound 10, 4′, 5,7-trihydroxy-3-methoxyflavone-7-O-α-L-arabinofuranosyl (1→6)-β-D-glucopyranoside]

ability to inhibit QR2 (in words) [4]: able to inhibit QR2
SMILES: O=c1c(O[C@@H]2O[C@H](CO)[C@@H](O)[C@H](O)[C@H]2O)c(-c2ccc(O)c(O)c2)oc2cc(O)cc(O)c12 [Compound 15, quercetin-3-O-β-D-glucoside]

response in LC-MS ultrafiltration binding assay with QR2 [3]: positive response
SMILES: COc1c(-c2ccc(O)cc2)oc2cc(O[C@@H]3O[C@H](CO)[C@@H](O)[C@H](O)[C@H]3O)cc(O)c2c1=O [Compound 14, 4′, 5,7-trihydroxy-3-methoxyflavone-7-O-β-D-glucopyranoside]
